Laboratory results reported in US8673910B2, “Proteasome inhibitors for selectively inducing apoptosis in cancer cells” (H. Lee Moffitt Cancer Center and Research Institute, priority 2008, dated 2014).
Values joined by “and” are separate entries in the source; they are usually repeats but may differ in a detail not shown here. Equal values may be shown once. Read-outs that look alike come from different tables or passages of the source.

How the values were obtained:
[1] = biological target: T1, PGPH activity of purified 20S rabbit proteasome (Oryctolagus cuniculus, UniProt A0A5F9DQW2); assay: Proteolytic activity of purified 20S proteasome, fluorogenic substrate Z-Leu-Leu-Glu-AMC; assay type: biochemical; details: Table 4: means of 3 experiments ± standard error, read-out: IC50 for PGPH-like activity in vitro
T1 construct: purchased Boston Biochem
T1 sequence (A0A5F9DQW2 1-212): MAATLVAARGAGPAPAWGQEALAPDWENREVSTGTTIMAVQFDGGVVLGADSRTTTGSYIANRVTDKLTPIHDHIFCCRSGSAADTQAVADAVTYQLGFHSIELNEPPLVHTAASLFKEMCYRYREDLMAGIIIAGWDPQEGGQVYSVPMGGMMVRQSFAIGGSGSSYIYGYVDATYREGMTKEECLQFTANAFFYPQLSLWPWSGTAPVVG
Procedure: (§1) In the high-throughput screen, the inventors used fluorogenic peptides as substrates to assay 3,229 compounds of the NCI Diversity, Natural Product, Challenge and Mechanistic Sets for inhibitory activity against the proteolytic activities of the purified 20S proteasome, resulting in the identification of PI-083. […] After incubation, production of hydrolyzed 7-amido-4-methyl-coumarin (AMC) groups was measured using a WALLAC Victor^2 1420 Multilabel Counter with an excitation filter of 355 nm and an emission filter of 460 nm (Perkin Elmer Life Sciences, Turku, Finland).

[2] = tested on: p27^Kip1 protein in A549 tumors; assay: Western blot of p27Kip1 in A549 tumor lysates; assay type: in vivo; details: A549-bearing nude mice
Procedure: (§2) Cell lysates (50 μg) were separated by SDS-PAGE and transferred to a nitrocellulose membrane, probed with p27^Kip1 and β-actin antibodies, and signals were visualized by enhanced chemoluminescence (ECL, Amersham, Piscataway, N.J.) according to the manufacturer's protocol.

[3] = tested on: HPDE6-C7-Kras (C7-Kras) pancreatic cancer cells; assay: MTT metabolism assay; assay type: cell-based; details: Homo sapiens, Pancreatic cancer cell, mean ± SD of 3 to 5 experiments, read-out: IC50 for cell viability measured by MTT assay
Procedure: (§3) Cells were plated in 96-well plates in 100 μl medium and allowed to attach overnight. […] Media was aspirated after 24 or 72 hours and replaced with 100 μl complete media containing 1 mg/ml MTT and incubated for three hours at 37° C. in 5% CO2 humidified incubator. Media was then aspirated and DMSO was added. Cells were incubated for 10 min at room temperature while shaking, and the absorbance was determined at 540 nm using a μQuant spectrophotometric plate reader (Bio-TEK, Winooski, Vt.).

[4] = tested on: T80 ovarian epithelial cells; assay: MTT metabolism assay; assay type: cell-based; details: Homo sapiens, Epithelial cell, mean ± SD of 3 to 5 experiments, read-out: IC50 for cell viability measured by MTT assay
Procedure: as §3

[5] = tested on: U266 multiple myeloma cells; assay: MTT metabolism assay; assay type: cell-based; details: Homo sapiens, U-266, mean ± SD of 3 to 5 experiments, read-out: IC50 for cell viability measured by MTT assay
Procedure: as §3

[6] = biological target: T2, trypsin-like (T-L) activity of purified 20S rabbit proteasome (Oryctolagus cuniculus, UniProt G1SWK8); assay: Proteolytic activity of purified 20S proteasome, fluorogenic substrate Bz-Val-Gly-Arg-AMC; assay type: biochemical; details: Table 4: means of 3 experiments ± standard error, read-out: IC50 for T-L activity in vitro
T2 construct: purchased Boston Biochem
T2 sequence (G1SWK8 1-271): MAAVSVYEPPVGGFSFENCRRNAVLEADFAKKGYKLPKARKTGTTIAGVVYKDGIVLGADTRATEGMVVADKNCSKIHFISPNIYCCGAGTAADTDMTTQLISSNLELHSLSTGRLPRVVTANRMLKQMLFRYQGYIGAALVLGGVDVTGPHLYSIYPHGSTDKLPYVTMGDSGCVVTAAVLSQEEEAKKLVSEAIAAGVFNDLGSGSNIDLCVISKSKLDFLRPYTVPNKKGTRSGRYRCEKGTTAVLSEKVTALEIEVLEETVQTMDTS
Procedure: as §1

[7] = tested on: CT-L activity of rabbit 20S proteasome; assay: Dialysis using purified rabbit 20S proteasome; assay type: biochemical; details: compound 10 μM, 30 min pre-incubation at 37° C.
Procedure: To measure the effect of dialysis on CT-L activity, compounds (10 μM) or vehicle (0.1% DMSO) were added to rabbit 20S proteasome (225 ng) (Boston Biochem) in proteasome assay buffer (50 mM Tris-HCl, pH 7.6) and incubated at 37° C. for 30 min. After 30 min of incubation, proteasome-compound mixtures were added to 10,000 MWCO Thermo Scientific Slide-A-Lyzer Dialysis Cassette (Rockford, Ill.) and dialyzed against proteasome assay buffer. Immediately (t=0) and 0.5 h, 1 h, 2 h, 4 h, and 18 h of dialysis at 4° C., samples were removed from the dialysis cassette and the CT-L 20S proteasome activity was determined. Proteasome activity was normalized against proteasome activity of DMSO control.

[8] = tested on: MCF-7/MCF-10A, T-80-Hras/T-80, C7-Kras/C7 cells; assay: TUNEL assay, apoptosis in cancer and non-transformed cell pairs; assay type: cell-based, human; details: 3 pairs of cell lines, 24 h
Procedure: Terminal deoxynucleotidyl transferase-mediated nick-end labeling (TUNEL) was used to determine the extent of DNA strand breaks (Kazi et al., 2004). The assay was performed with the APO-Direct Kit following the manufacturer's instructions. In brief, the harvested cells were fixed in 1% paraformaldehyde for 45 minutes on ice, washed twice with PBS, and then fixed again in 70% ethanol at −20° C. overnight. The cells were then incubated in DNA labeling solution (containing terminal deoxynucleotidyl transferase (TdT) enzyme, fluorescence-conjugated dUTP and reaction buffer) for 60 minutes at 37° C. After rinsing the cells to remove the DNA labeling solution, the cells were incubated with the propidium iodide/RNase A solution, incubated for 30 minutes at room temperature in the dark, and analyzed by flow cytometry within 3 hours of staining.

[9] = tested on: p27^Kip1 levels in A549 lung cancer cells; assay: Western blot of p27Kip1 in cultured A549 cells; assay type: cell-based, human; details: 48 h treatment
Procedure: as §2

[10] = biological target: T3, chymotrypsin-like (CT-L) activity of purified 20S rabbit proteasome (Oryctolagus cuniculus, UniProt G1T4Q9); assay: Proteolytic activity of purified 20S proteasome, fluorogenic substrate Suc-Leu-Leu-Val-Tyr-AMC; assay type: biochemical
T3 sequence (G1T4Q9 1-263): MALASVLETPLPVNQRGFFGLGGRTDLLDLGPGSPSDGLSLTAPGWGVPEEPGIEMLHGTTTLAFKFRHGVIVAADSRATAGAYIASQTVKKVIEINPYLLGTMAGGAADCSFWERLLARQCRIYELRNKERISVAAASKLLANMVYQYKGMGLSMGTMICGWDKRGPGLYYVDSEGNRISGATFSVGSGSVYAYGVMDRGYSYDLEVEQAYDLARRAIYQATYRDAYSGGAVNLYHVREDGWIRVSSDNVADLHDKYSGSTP

[11] = biological target: T4, CT-L activity of the proteasome in MCF-7 human breast cancer cells (Homo sapiens, UniProt P20618+P28074); assay: Proteolytic activity in cell lysates of treated intact MCF-7 cells; assay type: cell-based; details: intact cells treated 16 h, CT-L measured in cell lysates; two determinations where two values
T4 construct: endogenous in cells; host or cells: MCF-7
Procedure: Human MCF-7 breast cancer cells were cultured in DMEM medium containing 10% fetal calf serum (FCS) and 100 units/ml of penicillin and 100 μg/ml of streptomycin. Cells were maintained at 37° C. in a humidified incubator in an atmosphere of 5% CO2. Cells were treated with different concentrations of PI-083, YG1-080, YG1-075, HL2-090-2, HL2-090-4, HL2-090-6, and HL2-090-9 or vehicle control (DMSO) for 16 h.
Intact cells were treated with compounds and lysates prepared as described above. Cell lysates (5 μg) was incubated with 20 μM Suc-Leu-Leu-Val-Tyr-AMC for the CT-L activity for 1 h at 37° C. in 100 μl of assay buffer (50 mM Tris-HCl, pH 7.6). After incubation, production of hydrolyzed 7-amido-4-methyl-coumarin (AMC) groups was measured using a WALLAC Victor^2 1420 Multilabel Counter with an excitation filter of 355 nm and an emission filter of 460 nm (Perkin Elmer Life Sciences, Turku, Finland).

IC50 [11]	IC50 ([5]; U266, 72 h)	IC50 ([10]; PI-083 derivatives (Table 7, naphthoquinone library), purified rabbit 20S proteasome, read-out: IC50 (μM) Chymotrypsin-like activity)	IC50 ([10]; purified 20S rabbit proteasome, Table 4: means of 3 experiments ± standard error, read-out: IC50 for CT-L activity in vitro)	SMILES	IC50 [1]	treated tumors with dramatic upregulation of p27^Kip1 protein [2]	IC50 ([3]; 24 h)	IC50 ([3]; 72 h)	IC50 ([4]; T80, 24 h)	IC50 ([4]; T80, 72 h)	IC50 ([5]; U266, 24 h)	IC50 [6]	inhibition of CT-L activity of the 20S proteasome in the absence of dialysis [7]	apoptosis (TUNEL) [8]	p27^Kip1 levels in cultured A549 lung cancer cells [9]	difference in potency between bortezomib and PI-083 ([10]; CT-L inhibition)
				CC(C)C[C@H](NC(=O)[C@H](Cc1ccccc1)NC(=O)c1cnccn1)B(O)O [Bortezomib, reference compound]	475 nM	4 out of 4	> 30000 nM	28 ± 6 nM	> 30000 nM	14 ± 1 nM	> 30 µM	7.02 µM	99%	induced little apoptosis in any of the cell lines	marked increase	100 fold
6.2 µM and 5.6 µM	7 ± 1.5 µM	1.2 ± 1 µM	1 µM	O=C1C(Cl)=C(Nc2ccc(S(=O)(=O)Nc3ccccn3)cc2)C(=O)c2ccccc21 [PI-083, 4-(3-chloro-1,4-dioxo-1,4-dihydronaphthalen-2-ylamino)-N-(pyridin-2-yl)benzenesulfonamide]			2400 ± 230 nM	1900 ± 200 nM	2700 ± 530 nM	1700 ± 390 nM	23 ± 1.7 µM					
